Source: publication PMC11772769, “Selective cargo and membrane recognition by SNX17 regulates its interaction with Retriever” (EMBO Reports, 2024)
Changes are numbered by the printed parent chain. Where no end group is shown, it is not given here.

Tests used:
MBP-SNX17N459A+F462A = target: T1, MBP-SNX17N459A+F462A (Homo sapiens, UniProt Q15036, F462A/N459A); assay: Fluorescence anisotropy binding of 5-FAM peptides to MBP-SNX17 N459A+F462A
T1 construct: M protein marker, R Retriever complex, FL full-length; His (N, cleaved yes); made in house; host or cells: Escherichia coli BL21(DE3)
T1 sequence (Q15036 1-470 N459A/F462A): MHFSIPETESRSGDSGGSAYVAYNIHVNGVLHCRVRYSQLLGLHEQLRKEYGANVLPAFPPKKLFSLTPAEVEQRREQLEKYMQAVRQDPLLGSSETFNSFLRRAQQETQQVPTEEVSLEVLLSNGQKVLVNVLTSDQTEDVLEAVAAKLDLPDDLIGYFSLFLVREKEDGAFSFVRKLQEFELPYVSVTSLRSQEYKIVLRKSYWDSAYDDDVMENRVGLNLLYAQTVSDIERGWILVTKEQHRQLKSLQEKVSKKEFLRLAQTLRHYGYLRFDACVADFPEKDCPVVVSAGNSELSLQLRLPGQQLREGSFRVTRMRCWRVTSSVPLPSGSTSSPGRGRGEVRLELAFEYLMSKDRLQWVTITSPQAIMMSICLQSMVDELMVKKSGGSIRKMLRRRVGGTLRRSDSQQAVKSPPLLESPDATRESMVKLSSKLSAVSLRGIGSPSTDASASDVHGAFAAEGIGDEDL
Protocol: (§1) Lyophilized peptides were resuspended in 100 mM Hepes pH 8.0 at 5 mg/ml and further diluted in the assay buffer (50 mM Hepes pH 7.5, 300 mM NaCl, and 1 mM DTT). […] The mixture was incubated at 25 °C for at least 30 min and then transferred to 96 Flat Black plates. Fluorescence anisotropy was measured at 25 °C using Spark 10M Plate Reader (Tecan) with a 485/20 excitation filter and a 535/35 emission filter. The dissociation constants were calculated in GraphPad Prism by nonlinear regression fitting of the experimental data to a one-site total binding model. The final KD measurement is the mean of at least two independent experiments.

MBP-SNX17H457A = target: T2, MBP-SNX17H457A (Homo sapiens, UniProt Q15036, H457A); assay: Fluorescence anisotropy binding of 5-FAM peptides to MBP-SNX17 H457A
T2 construct: M protein marker, R Retriever complex, FL full-length; His (N, cleaved yes); made in house; host or cells: Escherichia coli BL21(DE3)
T2 sequence (Q15036 1-470 H457A): T1 sequence (Q15036 1-470 N459A/F462A) with H457A, A459N, A462F
Protocol: as §1

Sequence: KLITYDNPAYEGID [L2 14-mer]
- Kd (MBP-SNX17N459A+F462A): 0.6 ± 0.1 µM
- Kd (MBP-SNX17H457A): 1.1 ± 0.3 µM
